According to patent US11738019B2, “Substituted heterocycles as antiviral agents” (ENANTA PHARMACEUTICALS, INC., priority 2019, dated 2023):

Legend:
HBV (2.2.15 cells) = assay: HBV viral product reduction in 2.2.15 cells (qPCR / HBsAg or HBeAg ELISA); type: cell-based; details: Hepatitis B virus, 120 h, day 5 post treatment, concentration reducing viral product accumulation in cell lysates or supernatants by 50% relative to no drug controls
Experimental: 2.2.15 cells are passaged upon attaining confluency in DMEM/F12 media in the presence of 10% FBS, Penn/Strep, and 250 ug/mL G418. Novel compounds are 5 fold serially diluted in DMSO and added to 96 well plates containing 35,000 cells/well at a 1:200 dilution so that the final concentration of DMSO is 0.5%. On day 5, post treatment cell lysates and supernatants are harvested for analysis.
Cells are lysed using Agilent Sidestep Lysis buffer, diluted 1:100 and quantified via quantitative real time PCR. Commercially available ELISA kits are used to quantitate the viral proteins HBsAg (Alpco) or HBeAg (US Biological) by following the manufacturer's recommended protocol after diluting samples to match the linear range of their respective assays. Irrespective of readout, compound concentrations that reduce viral product accumulation in the cell lysates or supernatants by 50% relative to no drug controls (EC50) are reported; EC50 ranges are as follows: A<0.1 μM; B 0.1-1 μM; C>1 μM.

[1] = compound induced cellular toxicity in HepG2 cells (ATPlite 1Step); type: cell-based; details: human, three days, concentration reducing total ATP levels by 50% relative to no drug controls
Experimental: At day 3, post seeding cells are treated with ATPlite 1Step according to the manufacturer's instructions.

Compound `CC(C)(C)[C@@H]1Cc2c(cc(-c3cnsc3)c3ccoc23)-c2cc(=O)c(C(=O)O)cn21` [Example 11, (S)-5-(tert-butyl)-12-(isothiazol-4-yl)-9-oxo-4,9-dihydro-5H-furo[2,3-f]pyrido[2,1-a]isoquinoline-8-carboxylic acid] has an EC50 (HBV (2.2.15 cells)) of under 0.1 µM and a CC50 at 3 days [1] of over 25 µM.
`CC(C)(C)[C@@H]1Cc2c(cc(-c3cnco3)c3ccoc23)-c2cc(=O)c(C(=O)O)cn21` [Example 12, (S)-5-(tert-butyl)-12-(oxazol-5-yl)-9-oxo-4,9-dihydro-5H-furo[2,3-f]pyrido[2,1-a]isoquinoline-8-carboxylic acid] showed an EC50 (HBV (2.2.15 cells)) of under 0.1 µM and a CC50 at 3 days [1] of over 25 µM.
Compound `CC(C)(C)[C@@H]1Cc2c(cc(-c3ccoc3)c3occc23)-c2cc(=O)c(C(=O)O)cn21` [Example 13, (S)-5-(tert-butyl)-12-(furan-3-yl)-9-oxo-4,9-dihydro-5H-furo[3,2-f]pyrido[2,1-a]isoquinoline-8-carboxylic acid] has an EC50 (HBV (2.2.15 cells)) of under 0.1 µM and a CC50 at 3 days [1] of 10 to 25 µM.
Work on `Cn1nccc1-c1cc2c(c3occc13)C[C@@H](C(C)(C)C)n1cc(C(=O)O)c(=O)cc1-2` [Example 14, (S)-5-(tert-butyl)-12-(1-methyl-1H-pyrazol-5-yl)-9-oxo-4,9-dihydro-5H-furo[2,3-f]pyrido[2,1-a]isoquinoline-8-carboxylic acid] yielded an EC50 (HBV (2.2.15 cells)) of under 0.1 µM and a CC50 at 3 days [1] of over 25 µM.
With `Cn1cc(-c2cc3c(c4occc24)C[C@@H](C(C)(C)C)n2cc(C(=O)O)c(=O)cc2-3)cn1` [Example 15, (S)-5-(tert-butyl)-12-(1-methyl-1H-pyrazol-4-yl)-9-oxo-4,9-dihydro-5H-furo[2,3-f]pyrido[2,1-a]isoquinoline-8-carboxylic acid] the EC50 (HBV (2.2.15 cells)) was under 0.1 µM and the CC50 at 3 days [1] was over 25 µM.
`Cn1ccc(-c2cc3c(c4occc24)C[C@@H](C(C)(C)C)n2cc(C(=O)O)c(=O)cc2-3)n1` [Example 16, (S)-5-(tert-butyl)-12-(1-methyl-1H-pyrazol-3-yl)-9-oxo-4,9-dihydro-5H-furo[2,3-f]pyrido[2,1-a]isoquinoline-8-carboxylic acid] showed an EC50 (HBV (2.2.15 cells)) of under 0.1 µM and a CC50 at 3 days [1] of 10 to 25 µM.
`CC(C)(C)[C@@H]1Cc2c(cc(-c3cscn3)c3ccoc23)-c2cc(=O)c(C(=O)O)cn21` [Example 17, (S)-5-(tert-butyl)-9-oxo-12-(thiazol-4-yl)-4,9-dihydro-5H-furo[2,3-f]pyrido[2,1-a]isoquinoline-8-carboxylic acid] showed an EC50 (HBV (2.2.15 cells)) of under 0.1 µM and a CC50 at 3 days [1] of over 25 µM.
`CC(C)(C)[C@@H]1Cc2c(cc(N3CCCC3)c3ccoc23)-c2cc(=O)c(C(=O)O)cn21` [Example 18, (S)-5-(tert-butyl)-9-oxo-12-(pyrrolidin-1-yl)-4,9-dihydro-5H-furo[2,3-f]pyrido[2,1-a]isoquinoline-8-carboxylic acid] gave an EC50 (HBV (2.2.15 cells)) of under 0.1 µM and a CC50 at 3 days [1] of over 25 µM.
For `CC(C)(C)[C@@H]1Cc2c(cc(N3CCC(F)(F)C3)c3ccoc23)-c2cc(=O)c(C(=O)O)cn21` [Example 19, (S)-5-(tert-butyl)-12-(3,3-difluoropyrrolidin-1-yl)-9-oxo-4,9-dihydro-5H-furo[2,3-f]pyrido[2,1-a]isoquinoline-8-carboxylic acid], the EC50 (HBV (2.2.15 cells)) was under 0.1 µM and the CC50 at 3 days [1] was 10 to 25 µM.
